Reference: patent US20240000758A1, “ELEVATION OF MITOCHONDRIAL BIOGENESIS AND FUNCTION BY INHIBITION OF PROSTAGLANDIN DEGRADING ENZYME 15-PGDH” (The Board of Trustees of the Leland Stanford Junior …, priority 2020, published 2024)
“Also recorded” adds a separate entry of the source.

Assays:
[1] = tested on: peroxisome proliferator-activated receptor gamma coactivator 1-alpha (Pgc1α); test: Pgc1α mRNA level by qPCR in aged muscles; assay type: in vivo, mice; settings: SW vs vehicle and young, FIG. 1B
From the text: (§1) FIGS. 1A-1H. Boost in mitochondrial biogenesis and function is triggered by 15-PGDH inhibition in aged muscles. (FIG. 1A) Heatmap of mitochondrial genes. (FIG. 1B) Expression level of Pgc1α by qPCR (n=4 young, n=4 aged veh, n=3 aged SW033291 (SW)). (FIG. 1C) Relative quantification of mitochondrial DNA to nuclear DNA (n=4 per group). (FIG. 1D) Representative images and quantifications of intermyofibrillar (IMF) mitochondria numbers, their size, and myofibrillar width from transmission electron micrographs (TEM) of longitudinal sections of EDL muscles of young, aged vehicle and aged SW (n=3 mice per condition; total mitochondria quantified, n=1,066 young, n=1,350 aged vehicle and n=1,371 aged SW). Scale bar=2 μm. (FIG. 1E) Citrate synthase activity of Gastrocnemius muscles (n=3 young, n=4 aged vehicle and n=4 aged SW). (FIG. 1F) Representative TA cross-section stained for succinate dehydrogenase (SDH) (left). Quantification of SDH mean average intensity per fiber (n=4 mice per condition). (FIG. 1G) Representative images of mitochondrial membrane potential (TMRM staining) in isolated EDL myofibers from young, aged vehicle and SW treated mice (n=4 mice per condition; total number of fibers n=52 young, n=139 aged vehicle and n=89 aged SW). […] Quantification (right) (n=3 aged veh and SW). *P<0.05, **P<0.01, ***P<0.001, ****P<0.0001. […]

[2] = tested on: myofibers isolated from EDL muscles; test: mitochondrial membrane potential (TMRM staining) in isolated EDL myofibers; assay type: in vivo; settings: myofibers from EDL muscles of SW treated aged mice compared to controls; FIG. 1G
From the text: as §1

succinate dehydrogenase = succinate dehydrogenase (SDH) staining of TA cross-sections; assay type: in vivo, mice; settings: SW treated aged muscle; FIG. 1F
From the text: as §1

[3] = tested on: intermyofibrillar (IMF) mitochondria of EDL muscles; test: transmission electron microscopy (TEM) of Extensor digitorum longus (EDL) muscles; assay type: in vivo, mice
From the text: FIGS. 1A-1H. Boost in mitochondrial biogenesis and function is triggered by 15-PGDH inhibition in aged muscles. (FIG. 1A) Heatmap of mitochondrial genes. (FIG. 1B) Expression level of Pgc1α by qPCR (n=4 young, n=4 aged veh, n=3 aged SW033291 (SW)). (FIG. 1C) Relative quantification of mitochondrial DNA to nuclear DNA (n=4 per group). (FIG. 1D) Representative images and quantifications of intermyofibrillar (IMF) mitochondria numbers, their size, and myofibrillar width from transmission electron micrographs (TEM) of longitudinal sections of EDL muscles of young, aged vehicle and aged SW (n=3 mice per condition; total mitochondria quantified, n=1,066 young, n=1,350 aged vehicle and n=1,371 aged SW). Scale bar=2 μm. (FIG. 1E) Citrate synthase activity of Gastrocnemius muscles (n=3 young, n=4 aged vehicle and n=4 aged SW). (FIG. 1F) Representative TA cross-section stained for succinate dehydrogenase (SDH) (left). Quantification of SDH mean average intensity per fiber (n=4 mice per condition). (FIG. 1G) Representative images of mitochondrial membrane potential (TMRM staining) in isolated EDL myofibers from young, aged vehicle and SW treated mice (n=4 mice per condition; total number of fibers n=52 young, n=139 aged vehicle and n=89 aged SW). (FIG. 1H) Immunoblots of muscle lysates from: aged vehicle and SW treated mice together with colchicine, young mice without treatment, young mice treated with colchicine and young mice fasted and treated with colchicine. Quantification (right) (n=3 aged veh and SW). *P<0.05, **P<0.01, ***P<0.001, ****P<0.0001. ANOVA test with Tukey's test (FIG. 1D) or Fisher's LSD (FIGS. 1A, 1F, 1G) for multiple comparisons; Unpaired t-test (FIGS. 1C, 1E, 1H). Means±s.e.m.
(§2) FIGS. 2A-2C. […] (FIG. 2B) Quantification of immunoblot in (FIG. 2A) (n=3 mice per timepoint). (FIG. 2B) Representative images of intermyofibrillar (IMF) mitochondria from transmission electron micrographs (TEM) of longitudinal sections of EDL muscles of young, aged vehicle and aged SW (n=3 mice per condition; total mitochondria quantified, n=1,066 young, n=1,350 aged vehicle and n=1,371 aged SW). […]

p62 = test: autophagy flux, western blot of p62 upon colchicine treatment; assay type: in vivo; settings: muscles of aged mice treated with SW compared to controls; FIG. 1H
From the text: as §1

aged muscles [4] = test: muscle atrophy (cross sectional area, muscle mass) in aged mice; assay type: in vivo; settings: aged treated with SW compared to vehicle controls
From the text: In addition, the morphology of the mitochondria improved. The shift in IMF mitochondrial area from compact and round in young to a larger size with more disorganized morphology in aged tissues was clearly evident, in agreement with reports by others (J. P. Leduc-Gaudet et al., Mitochondrial morphology is altered in atrophied skeletal muscle of aged mice. Oncotarget 6, 17923-17937 (2015); V. Romanello, M. Sandri, Mitochondrial Quality Control and Muscle Mass Maintenance. Front Physiol 6, 422 (2015)) (FIGS. 1D and 2B).

aged muscles [5] = test: unbiased transcriptomic analysis of aged muscles treated with vehicle or SW033291; assay type: in vivo, mice; settings: FIG. 1A
From the text: as §1

citrate synthase = citrate synthase activity in isolated mitochondria of aged muscles; assay type: in vivo, mice; settings: SW-treated aged muscles compared to controls, FIGS. 1E and 2C
From the text: as §1, with “(FIG. 1F) Representative TA cross-section stained for succinate dehydrogenase (SDH) (left).” left out, “condition).” for “condition). (FIG. 1G) Representative images of mitochondrial membrane potential (TMRM staining) in isolated EDL myofibers from young, aged vehicle and SW treated mice (n=4 mice per condition; total number of fibers n=52 young, n=139 aged vehicle and n=89 aged SW).”
as §2

aged muscles [6] = test: relative quantification of mitochondrial DNA to nuclear DNA in aged muscles; assay type: in vivo, mice; settings: SW treatment of aged muscles; FIG. 1C
From the text: as §1

[7] = tested on: cyclic AMP response element binding protein (CREB); test: immunoblots of muscle lysates for CREB activation after PGE2 i.m. injection; assay type: in vivo, C57BL/6 mice; settings: young (3 mo.) mice, PGE2 i.m., 0, 30 or 60 minutes; FIG. 2A
Method: FIGS. 2A-2C. PGE2 treatment leads to activation of CREB in muscles and 15-PGDH inhibition leads to increased mitochondrial biogenesis and function in aged muscles. (FIG. 2A) Immunoblots of muscle lysates from young (3 mo.) C57BL/6 mice injected with PGE2 i.m. after 0, 30 or 60 minutes. (FIG. 2B) Quantification of immunoblot in (FIG. 2A) (n=3 mice per timepoint). (FIG. 2B) Representative images of intermyofibrillar (IMF) mitochondria from transmission electron micrographs (TEM) of longitudinal sections of EDL muscles of young, aged vehicle and aged SW (n=3 mice per condition; total mitochondria quantified, n=1,066 young, n=1,350 aged vehicle and n=1,371 aged SW). Different magnifications are as shown: 1,500×, 3,000× and 10,000× with […] respectively: 5 μm, 2 μm and 500 nm. (FIG. 2C) Citrate synthase activity of Quadriceps (Quad) muscles (n=13 aged vehicle and n=8 aged SW). *P<0.05, **P<0.01. ANOVA test with Fisher's LSD for multiple comparisons (FIG. 2B); unpaired t-test (FIG. 2C). Means±s.e.m.
To identify downstream signaling pathways through which 15-PGDH inhibition exerts its effects on aged muscles, we performed an unbiased transcriptomic analysis of aged muscles treated with vehicle or SW033291 (SW). […]

| Structure (SMILES) | mRNA level of Pgc1α [1] | mitochondrial membrane potential [2] | succinate dehydrogenase activity (succinate dehydrogenase) | number of intermyofibrillar (IMF) mitochondria ([3]; EDL muscles of aged mice after SW treatment, FIGS. 1D and 2B) | mitochondrial morphology ([3]; aged EDL muscles, one month of SW treatment, FIG. 1D) | myofibril width ([3]; aged treated with SW compared to vehicle controls, FIGS. 1D and 2B) | autophagy flux (p62 upon colchicine treatment) (p62) | muscle atrophy (aged muscles [4]) | components of mitochondria complexes I, II, IV and V of the electron transport chain (transcriptome) (aged muscles [5]; SW-treated aged muscles) | change in aged muscle tissue transcriptome: mitochondrial pathways (oxidative phosphorylation, ATP synthesis) (aged muscles [5]; aged muscles, SW vs vehicle) | citrate synthase activity (citrate synthase) | mitochondrial DNA content relative to nuclear DNA content (aged muscles [6]) | activation of CREB in skeletal muscles [7] |
| --- | --- | --- | --- | --- | --- | --- | --- | --- | --- | --- | --- | --- | --- |
| CCCC[S+]([O-])c1sc2nc(-c3cccs3)cc(-c3ccccc3)c2c1N (stereo not shown) [SW, 2-(butylsulfinyl)-4-phenyl-6-(thiophen-2-yl)thieno[2,3-b]pyridin-3-amine] | restored to that seen in young muscles | increase; also recorded: restored to young levels | increased; also recorded: restored to young levels | increase | restored to a compact mitochondrial morphology resembling that seen in young | increase | increased | attenuation of muscle atrophy | markedly increased | strong enrichment for mitochondrial pathways | significantly increased; also recorded: restored to young levels | increased | – |
| CCCCC[C@H](O)/C=C/[C@H]1[C@H](O)CC(=O)[C@@H]1C/C=C\CCCC(=O)O [PGE2, Prostaglandin E2] | – | – | – | – | – | – | – | – | – | – | – | – | activates |
